# Source: patent publication US6492416B1, “4,5-diaryl-3(2H)-furanone derivatives as cyclooxygenase-2 inhibitors” (Pacific Corporation, priority 1999, dated 2002)
# Legend:
# COX-2 = target: T1, COX-2 (Mus musculus, UniProt Q05769); assay: Evaluation of COX-2 activity: PGE2 formation in aspirin-treated, LPS-stimulated mouse peritoneal macrophages; type: cell-based
# T1 sequence (Q05769 18-604): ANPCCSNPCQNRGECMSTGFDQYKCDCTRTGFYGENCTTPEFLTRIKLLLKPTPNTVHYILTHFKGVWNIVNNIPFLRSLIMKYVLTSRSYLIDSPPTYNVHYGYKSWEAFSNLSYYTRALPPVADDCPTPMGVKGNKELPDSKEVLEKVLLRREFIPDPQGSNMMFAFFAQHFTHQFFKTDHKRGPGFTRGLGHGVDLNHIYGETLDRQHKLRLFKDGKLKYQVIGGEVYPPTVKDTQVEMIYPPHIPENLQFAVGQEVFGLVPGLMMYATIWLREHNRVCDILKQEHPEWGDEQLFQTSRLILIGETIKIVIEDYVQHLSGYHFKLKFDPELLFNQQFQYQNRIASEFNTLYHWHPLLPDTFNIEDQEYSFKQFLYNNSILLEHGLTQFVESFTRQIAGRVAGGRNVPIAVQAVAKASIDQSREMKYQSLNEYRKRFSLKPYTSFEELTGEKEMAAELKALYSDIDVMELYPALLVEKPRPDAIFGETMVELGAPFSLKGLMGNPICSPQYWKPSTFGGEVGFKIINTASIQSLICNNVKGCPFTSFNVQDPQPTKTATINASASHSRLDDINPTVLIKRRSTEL
# How it was run: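 PGE2 output, quantified by radio- or enzyme-immunoassay, was read after 10 min exposure of cells to compound with 10 μM arachidonic acid. Cells were mouse peritoneal macrophages, COX-1 knocked out with 500 μM aspirin and COX-2 induced by 10 μg/ml LPS over 16 h. IC50 derived from 4–5 concentrations.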
# COX-1 = target: T2, COX-1 (Mus musculus, UniProt P22437); assay: Evaluation of COX-1 activity: PGE2 formation in mouse peritoneal macrophages without aspirin and LPS treatment; type: cell-based
# T2 sequence (P22437 27-602): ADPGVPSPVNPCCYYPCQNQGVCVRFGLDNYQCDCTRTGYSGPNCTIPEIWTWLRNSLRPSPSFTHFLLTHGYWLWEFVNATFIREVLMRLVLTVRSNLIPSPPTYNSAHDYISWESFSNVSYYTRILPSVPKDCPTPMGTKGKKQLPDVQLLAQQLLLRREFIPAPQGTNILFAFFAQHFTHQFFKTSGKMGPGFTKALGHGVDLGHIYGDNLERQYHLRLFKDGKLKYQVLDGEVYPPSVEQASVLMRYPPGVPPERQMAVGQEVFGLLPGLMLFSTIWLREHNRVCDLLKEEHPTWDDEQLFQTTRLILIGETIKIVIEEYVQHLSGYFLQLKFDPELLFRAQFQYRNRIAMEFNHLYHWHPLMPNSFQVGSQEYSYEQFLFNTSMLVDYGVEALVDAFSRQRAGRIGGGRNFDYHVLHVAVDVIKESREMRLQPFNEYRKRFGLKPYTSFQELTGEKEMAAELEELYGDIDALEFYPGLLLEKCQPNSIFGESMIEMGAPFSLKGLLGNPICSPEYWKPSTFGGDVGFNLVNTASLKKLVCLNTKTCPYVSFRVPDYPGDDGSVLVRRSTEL
# How it was run: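 Peritoneal macrophages from C57BL/6 mice, without aspirin or LPS treatment, were plated at 1×10^6 cells/ml and fixed 2 h at 37 °C. Cells were preincubated 10 min, then given 10 μM arachidonic acid plus compound for 10 min; PGE2 was measured by RIA or EIA. IC50 came from 4–5 concentrations.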
SMILES,"IC50, μg/ml COX-2 (COX-2) [µg/mL]","IC50, μg/ml COX-1 (COX-1) [µg/mL]",melting point [°C],"IC50 (COX-2; read-out: IC50, μg/ml COX-2 (converted)) [µM]","IC50 (COX-1; read-out: IC50, μg/ml COX-1 (converted)) [µM]"
"CC1(C)OC(c2ccc(S(C)(=O)=O)cc2)=C(c2cccc([N+](=O)[O-])c2)C1=O [Example 6, 2,2-Dimethyl-5-{4-(methylsulfonyl)phenyl}-4-(3-nitrophenyl)-3(2H)-furanone]",0.05,5,158 to 159,,
CCC1(C)OC(c2ccc(S(N)(=O)=O)cc2)=C(c2cccc(OC)c2)C1=O (stereo not drawn) [Example 236],0.0097,10.7,69 to 70,,
"CC1(C)OC(c2ccc(S(C)(=O)=O)cc2)=C(c2ccc(O)cc2)C1=O [Example 104, 2,2-Dimethyl-4-(4-hydroxyphenyl)-5-{4-(methylsulfonyl)phenyl}-3(2H)-furanone]",0.3,100,150 to 152,,
CC1(C)OC(c2ccc(S(C)(=O)=O)c(F)c2)=C(c2cc(F)ccc2F)C1=O [Example 282],0.03,30,140 to 141,,
CC1(C)OC(c2ccc(S(C)(=O)=O)cc2F)=C(c2ccc(F)cc2)C1=O [Example 324],0.03,3,150 to 152,,
"CC(=O)c1cccc(C2=C(c3ccc(S(C)(=O)=O)cc3)OC(C)(C)C2=O)c1 [Example 5, 4-(3-acetylphenyl)-2,2-dimethyl-5-{4-(methylsulfonyl)phenyl}-3(2H)-furanone]",0.05,50,189 to 190,,
CS(=O)(=O)c1ccc(C2=C(c3cccc(Cl)c3)C(=O)C3(CCOCC3)O2)cc1 [Example 263],0.03,50,96 to 99,,
CC1(C)OC(c2ccc(S(C)(=O)=O)cc2)=C(c2ccccc2O)C1=O [Example 105],0.03,50,182 to 183,,
CC1(C)OC(c2ccc(S(C)(=O)=O)cc2)=C(c2ccc(C=O)s2)C1=O [Example 121],0.2,30,168 to 170,,
CC1(C)OC(c2ccc(S(N)(=O)=O)c(Cl)c2)=C(c2cc(F)cc(F)c2)C1=O [Example 371],0.02,200,173 to 174,,
CC1(C)OC(c2ccc(S(C)(=O)=O)c(Br)c2)=C(c2cc(F)cc(F)c2)C1=O [Example 345],0.03,50,194 to 195,,
CCC1(CC)OC(c2ccc(S(C)(=O)=O)cc2)=C(c2ccc(C)cc2)C1=O [Example 245],0.03,3,96 to 97,,
COc1cccc(C2=C(c3ccc(S(N)(=O)=O)cc3)OC(C)(C)C2=O)c1 [Example 135],0.055,>10,259 to 260,,
CC1(C)OC(c2ccc(S(C)(=O)=O)cc2)=C(c2cc(F)ccc2F)C1=O [Example 103],0.03,20,141 to 142,,
CCC1(CC)OC(c2ccc(S(C)(=O)=O)cc2)=C(c2ccc(C(F)(F)F)cc2)C1=O [Example 246],0.03,3,121 to 122,,
Cc1ccc(C2=C(c3ccc(S(C)(=O)=O)cc3)OC(C)(C)C2=O)s1 [Example 122],0.03,3,141 to 142,,

SMILES,"IC50, μg/ml COX-2 (COX-2) [µg/mL]","IC50, μg/ml COX-1 (COX-1) [µg/mL]",melting point [°C],"IC50 (COX-2; read-out: IC50, μg/ml COX-2 (converted)) [µM]","IC50 (COX-1; read-out: IC50, μg/ml COX-1 (converted)) [µM]"
"CNS(=O)(=O)c1ccc(C2=C(c3ccccc3)C(=O)C(C)(C)O2)cc1Cl [Example 372, 5-{3-Chloro-4-(N-methylaminosulfonyl)phenyl}-2,2-dimethyl-4-phenyl-3(2H)-furanone]",0.09,200,136 to 137,,
CC1(C)OC(c2ccc(S(N)(=O)=O)c(F)c2)=C(c2cccc(Cl)c2)C1=O [Example 305],0.003,0.3,164 to 165,,
CCC1(C)OC(c2ccc(S(C)(=O)=O)cc2)=C(c2ccccc2F)C1=O (stereo not drawn) [Example 188],,,108 to 109,0.801,80.1
CC1(C)OC(c2ccc(S(C)(=O)=O)cc2F)=C(c2cc(F)cc(F)c2)C1=O [Example 326],0.03,20,118 to 119,,
CC1(C)OC(c2ccc(S(C)(=O)=O)c(Cl)c2)=C(c2cccc(Cl)c2)C1=O [Example 358],0.02,8,188 to 189,,
CS(=O)(=O)c1ccc(C2=C(c3cc(F)cc(F)c3)C(=O)C3(CCCC3)O2)cc1 [Example 256],0.03,5,127 to 128,,
CC1(C)OC(c2ccc(S(C)(=O)=O)c(Cl)c2)=C(c2ccc(F)cc2)C1=O [Example 360],0.009,3,173 to 174,,
CC1(C)OC(c2ccc(S(C)(=O)=O)cc2F)=C(c2cccc(F)c2)C1=O [Example 323],0.03,10,157 to 158,,
CCCc1ccc(C2=C(c3ccc(S(C)(=O)=O)cc3)OC(C)(C)C2=O)cc1 [Example 96],0.02,3,99 to 100,,
CC1(C)OC(c2ccc(S(N)(=O)=O)cc2)=C(c2ccc(F)c(F)c2)C1=O [Example 138],0.0067,1.94,210 to 211,,
"CC1(C)OC(c2ccc(S(C)(=O)=O)cc2)=C(c2cccc(N)c2)C1=O [Example 66, 4-(3-aminophenyl)-2,2-dimethyl-5-{4-(methylsulfonyl)phenyl}-3(2H)-furanone]",0.05,50,186 to 187,,
CC1(C)OC(c2ccc(S(C)(=O)=O)cc2)=C(c2cc(Cl)cc(Cl)c2)C1=O [Example 75],0.03,3,187 to 188,,
CC1(C)OC(c2ccc(S(C)(=O)=O)c(F)c2)=C(c2ccc(F)cc2F)C1=O [Example 281],0.1,10,183 to 184,,
CC1(C)OC(c2ccc(S(C)(=O)=O)c(F)c2)=C(c2ccc(C(F)(F)F)cc2)C1=O [Example 286],0.03,5,134 to 135,,
"C[S+]([O-])c1ccc(C2=C(c3ccccc3)C(=O)C(C)(C)O2)cc1F (stereo not drawn) [Example 291, 2,2-dimethyl-5-{3-fluoro-4-(methylsulfinyl)phenyl}-4-phenyl-3(2H)-furanone]",0.2,3,149 to 150,,
